Our source for the IC50 and EC50 values is patent publication US11739089B2, “Acetamido-phenyltetrazole derivatives and methods of using the same” (Athenex, Inc., priority 2020, dated 2023).

A word on the IC50: it is the concentration needed to halve the response being measured. Low readings indicate inhibition by little substance, high ones a need for much substance. One may read the EC50 as the concentration needed to bring the measured effect to its halfway point. Low readings indicate greater potency, high ones weaker potency.

Structures are written as SMILES. Read-outs that look alike come from different tables or passages of the source.

One data set deals with CYP3A4 (Homo sapiens (Human), UniProt P08684). Briefly: CYP3A4 inhibitory activity: Luciferin-IPA (P450-Glo) assay with human liver microsome. As for the experimental part:
Cytochrome P450 activity may be determined by a P450-Glo™ assay (Promega) with human liver microsomes wherein the compounds of the present disclosure are dosed at different concentrations in buffer and incubated. Dose-response curve and IC50 data may be obtained and fit to a nonlinear regression model using GraphPad Prism software (v6.0).
The standard final Compound concentrations were 37, 111, 333, 1000, and 3000 nM. 12.5 μL of the Compound dilutions were transferred to a white 96-well plate. 1450 μL (enough for a whole plate) of 4× assay buffer (400 mM potassium phosphate buffer (10 mL 1M potassium phosphate buffer: 8.02 mL 1M K2HPO4+1.98 mL 1M KH2PO4 (1.4 g K2HPO4+0.27 g KH2PO4 in 10 mL H2O), 32 μM Luciferin-IPA (Promega V9002)) 580 μl of 1 M K3PO4 buffer, 870 μL H2O, 14 μL of 3 mM Luciferin-IPA, and 18 μL of human liver microsome (Sigma M0317-1VL) was made. 12.5 μL of 4× assay buffer was added to each well. For the well of blank control, 12.5 μL of 4× assay buffer without liver microsome was added. The plate was incubated at room temperature for 15 minutes. 2.75 mL NADPH buffer was made as follows: 2.42 mL H2O, 275 μL solution A and 55 μL solution B (NADPH regeneration system, Promega V9510). 25 μL of the buffer was added to each well. The plates were incubated at 37° C. for 11 minutes. 50 μL of luciferin detection reagent (Promega V9002) was added and the plates were incubated at room temperature for 5 minutes. The plate was read with a luminometer.
The dose-response curve and IC50 were obtained by fitting data to nonlinear regression model using GraphPad Prism software (v6.0).
(Liver microsomes are vesicles of endoplasmic reticulum, rich in cytochrome P450 enzymes.)

The target in another data set is P-glycoprotein (Homo sapiens (Human), UniProt P08183). Briefly: P-glycoprotein inhibitory activity: MTT cell growth assay in P-gp overexpressing MES-SA/DX5 cells with docetaxel or paclitaxel. Type of data set: cell-based. The conditions noted are these: 3 days, with 100 nM docetaxel or 200 nM paclitaxel, MTT readout. As for the experimental part: P-glycoprotein inhibitory activity may be determined by an assay wherein P-glycoprotein overexpressed cell lines are treated with increasing concentrations of a compound of the present disclosure and therapeutic agent for three days, followed by an MTT assay.
Cell growth percentage may be calculated with the following equation: Cell growth percentage=(T−T0)/(C−T0)×100%, wherein T is OD of the test well exposure to Compound; C is OD of the control well without Compound treatment; and T0 is OD at time zero.
A P-glycoprotein overexpressing cell line derived from the human uterine sarcoma cell line MES-SA (i.e., MES-SA/DX5 cells (ATCC)) was seeded by stepwise exposures to increasing concentrations of doxorubicin, in a 96-well plate at 6,500 cells/100 μL media (McCoy's 5A+10% FBS) in each well. The cells were incubated overnight at 37° C. 5% CO2. Compounds were diluted in a separate 96-well plate to yield 11× of final concentration (final Compound concentrations were 0, 5, 20, 80, 320, and 1280 nM and the final docetaxel concentration was 100 nM or the final paclitaxel concentration was 200 nM). DMSO was used as a negative control and known P-glycoprotein inhibitor, encequidar methane sulfonic acid monohydrate (HM30181A), was used as a positive control. 10 μL of the 11× dilutions was added to the appropriate well, P-glycoprotein inhibition wells comprised Compound+docetaxel (or Compound+paclitaxel). The compound toxicity wells comprised 1280 nM Compound+10 μL of culture media. Treated the cells were incubated for 3 days at 37° C. 5% CO2.
To value (reflecting the starting number of cells upon Compound treatment) of 3 wells of cells was determined by performing the following steps 1-4 as described below.
1. 10 μL MTT (5 mg/mL in PBS) was added to each well and incubated for 1.5 hours at 37° C. 5% CO2.
2. Culture media was removed and 100 μL of DMSO was added to each well.
3. The plate was gently shook until all purple MTT formazan crystals were dissolved. OD540 was then measured using microplate reader.
4. Cell growth percentage was calculated with the following equation: Cell growth percentage=(T−T0)/(C−T0)×100%, wherein T is OD of the test well exposure to Compound; C is OD of the control well without Compound treatment; and T0 is OD at time zero.
(Tetrazolium dyes change colour on reduction, which living cells bring about.)

Sequence of P-glycoprotein (P08183 whole entry): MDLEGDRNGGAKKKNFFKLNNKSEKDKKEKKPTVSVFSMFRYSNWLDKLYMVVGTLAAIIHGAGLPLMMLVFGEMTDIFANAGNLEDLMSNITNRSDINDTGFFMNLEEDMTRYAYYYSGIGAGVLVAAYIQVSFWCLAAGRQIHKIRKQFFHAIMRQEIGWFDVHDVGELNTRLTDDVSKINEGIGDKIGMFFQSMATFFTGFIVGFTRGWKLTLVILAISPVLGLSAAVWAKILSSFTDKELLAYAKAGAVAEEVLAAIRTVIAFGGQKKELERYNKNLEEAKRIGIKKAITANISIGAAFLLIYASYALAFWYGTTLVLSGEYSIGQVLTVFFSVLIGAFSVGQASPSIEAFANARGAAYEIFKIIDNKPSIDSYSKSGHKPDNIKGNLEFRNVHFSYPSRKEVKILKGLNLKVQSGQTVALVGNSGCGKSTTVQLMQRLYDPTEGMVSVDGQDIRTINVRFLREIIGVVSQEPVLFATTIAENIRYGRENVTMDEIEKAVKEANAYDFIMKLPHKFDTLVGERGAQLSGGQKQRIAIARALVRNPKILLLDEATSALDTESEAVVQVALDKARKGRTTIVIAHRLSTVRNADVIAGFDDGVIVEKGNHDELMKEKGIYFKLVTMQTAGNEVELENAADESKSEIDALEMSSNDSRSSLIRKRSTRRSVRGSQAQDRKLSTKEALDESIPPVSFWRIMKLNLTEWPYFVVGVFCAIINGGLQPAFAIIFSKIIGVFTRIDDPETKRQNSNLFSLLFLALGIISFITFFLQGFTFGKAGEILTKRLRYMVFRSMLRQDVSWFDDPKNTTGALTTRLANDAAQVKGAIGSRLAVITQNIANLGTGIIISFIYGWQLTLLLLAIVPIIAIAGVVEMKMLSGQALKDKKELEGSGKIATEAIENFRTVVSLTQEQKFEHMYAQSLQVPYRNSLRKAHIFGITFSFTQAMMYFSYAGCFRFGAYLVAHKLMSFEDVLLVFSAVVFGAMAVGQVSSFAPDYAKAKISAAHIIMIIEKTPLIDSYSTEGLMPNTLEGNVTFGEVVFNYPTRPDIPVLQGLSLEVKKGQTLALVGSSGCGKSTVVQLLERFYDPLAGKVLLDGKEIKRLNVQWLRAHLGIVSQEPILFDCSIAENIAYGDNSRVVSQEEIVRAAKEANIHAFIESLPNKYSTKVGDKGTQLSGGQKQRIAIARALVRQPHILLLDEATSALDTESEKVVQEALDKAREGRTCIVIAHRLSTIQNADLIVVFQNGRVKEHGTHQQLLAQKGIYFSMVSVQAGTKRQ
Sequence of CYP3A4 (P08684 whole entry): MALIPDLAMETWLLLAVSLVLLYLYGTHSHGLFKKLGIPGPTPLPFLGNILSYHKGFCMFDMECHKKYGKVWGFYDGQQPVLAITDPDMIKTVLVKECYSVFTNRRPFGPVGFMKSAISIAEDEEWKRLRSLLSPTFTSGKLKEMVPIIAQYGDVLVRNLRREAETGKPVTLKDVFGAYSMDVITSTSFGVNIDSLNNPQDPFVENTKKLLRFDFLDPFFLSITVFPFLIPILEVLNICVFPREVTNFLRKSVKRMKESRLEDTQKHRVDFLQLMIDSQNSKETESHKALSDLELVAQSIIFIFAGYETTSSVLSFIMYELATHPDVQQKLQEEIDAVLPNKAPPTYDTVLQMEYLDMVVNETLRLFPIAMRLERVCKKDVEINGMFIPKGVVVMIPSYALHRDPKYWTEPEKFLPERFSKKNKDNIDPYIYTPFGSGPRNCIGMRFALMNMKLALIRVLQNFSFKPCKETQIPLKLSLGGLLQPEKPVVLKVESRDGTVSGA

For `COc1cc(NC(=O)c2cc(=O)c3ccccc3o2)c(-c2nnn(-c3ccc(CCN4CCc5cnccc5C4)cc3)n2)cc1OCc1ccccc1` [Compound 12, N-(4-(Benzyloxy)-2-(2-(4-(2-(3,4-dihydro-2,6-naphthyridin-2(1H)-yl)ethyl)phenyl)-2H-tetrazol-5-yl)-5-methoxyphenyl)-4-oxo-4H-chromene-2-carboxamide], the half-maximal inhibitory concentration (IC50) at CYP3A4 (human, microsomes, 11 min) was greater than 1000 nM. In addition, the concentration giving a half-maximal response (EC50) on P-glycoprotein was less than 100 nM.
With `COc1cc(NC(=O)c2cnc3ccccc3c2)c(-c2nnn(-c3ccc(CCN4CCc5cnccc5C4)cc3)n2)cc1OCc1ccccc1` [Compound 13, N-(4-(Benzyloxy)-2-(2-(4-(2-(3,4-dihydro-2,6-naphthyridin-2(1H)-yl)ethyl)phenyl)-2H-tetrazol-5-yl)-5-methoxyphenyl)quinoline-3-carboxamide], the IC50 on CYP3A4 lay in the range of 500 to 1000 nM. At P-glycoprotein, the concentration giving a half-maximal response (EC50) was less than 100 nM.
For `COC(=O)c1ccc(-c2nnn(-c3ccc(CCN(C)Cc4ccc5c(cnn5C)c4)cc3)n2)c(NC(=O)c2cc(=O)c3ccccc3o2)c1` [Compound 15, Methyl 4-(2-(4-(2-(methyl((1-methyl-1H-indazol-5-yl)methyl)amino)ethyl)phenyl)-2H-tetrazol-5-yl)-3-(4-oxo-4H-chromene-2-carboxamido)benzoate], in that order: greater than 1000 nM and less than 100 nM.
For `COc1cc(NC(=O)c2cnc3ccccc3n2)c(-c2nnn(-c3ccc(CCN4CCc5cnccc5C4)cc3)n2)cc1OC` [Compound 9, N-(2-(2-(4-(2-(3,4-Dihydro-2,6-naphthyridin-2(1H)-yl)ethyl)phenyl)-2H-tetrazol-5-yl)-4,5-dimethoxyphenyl)quinoxaline-2-carboxamide], in that order: 500 to 1000 nM and greater than 1000 nM.
Turning to `COc1cc2c(cc1OC)CN(CCc1ccc(-n3nnc(-c4cc(OCc5ccncc5)ccc4NC(=O)c4cc(=O)c5ccccc5o4)n3)cc1)CC2` [Compound 26, N-(2-(2-(4-(2-(6,7-Dimethoxy-3,4-dihydroisoquinolin-2(1H)-yl)ethyl)phenyl)-2H-tetrazol-5-yl)-4-(pyridin-4-ylmethoxy)phenyl)-4-oxo-4H-chromene-2-carboxamide], on CYP3A4 (human, microsomes, 11 min), the IC50 is greater than 1000 nM. The half-maximal effective concentration (EC50) at P-glycoprotein was less than 100 nM.
On to `COc1cc2c(cc1OC)CN(CCc1ccc(-n3nnc(-c4cc(OCCc5cccnc5)ccc4NC(=O)c4cc(=O)c5ccccc5o4)n3)cc1)CC2` [Compound 28, N-(2-(2-(4-(2-(6,7-Dimethoxy-3,4-dihydroisoquinolin-2(1H)-yl)ethyl)phenyl)-2H-tetrazol-5-yl)-4-(2-(pyridin-3-yl)ethoxy)phenyl)-4-oxo-4H-chromene-2-carboxamide], for which the IC50 against CYP3A4 was 500 to 1000 nM. The compound also yielded an EC50 at P-glycoprotein of 100 to 250 nM.
The like results for `COc1cc(NC(=O)c2cc(=O)c3ccccc3o2)c(-c2nnn(-c3ccc(CCN4CCc5cc(-n6ccnc6)ccc5C4)cc3)n2)cc1OC` [Compound 8, N-(2-(2-(4-(2-(6-(1H-Imidazol-1-yl)-3,4-dihydroisoquinolin-2(1H)-yl)ethyl)phenyl)-2H-tetrazol-5-yl)-4,5-dimethoxyphenyl)-4-oxo-4H-chromene-2-carboxamide] were, in that order, 100 to 250 nM and greater than 1000 nM.
As for `COc1cc(NC(=O)c2cc(=O)c3ccccc3o2)c(-c2nnn(-c3ccc(CCN4CCc5cc(OC)c(OCCn6ccnc6)cc5C4)cc3)n2)cc1OC` [Compound 14, N-(2-(2-(4-(2-(7-(2-(1H-Imidazol-1-yl)ethoxy)-6-methoxy-3,4-dihydroisoquinolin-2(1H)-yl)ethyl)phenyl)-2H-tetrazol-5-yl)-4,5-dimethoxyphenyl)-4-oxo-4H-chromene-2-carboxamide], the half-maximal effective concentration (EC50) at P-glycoprotein was greater than 1000 nM.
For the compound `COc1cc(NC(=O)c2cc(=O)c3ccccc3o2)c(-c2nnn(-c3ccc(CCN4CCn5cncc5C4)cc3)n2)cc1OCc1ccccc1` [Compound 18, N-(4-(Benzyloxy)-2-(2-(4-(2-(5,6-dihydroimidazo[1,5-a]pyrazin-7(8H)-yl)ethyl)phenyl)-2H-tetrazol-5-yl)-5-methoxyphenyl)-4-oxo-4H-chromene-2-carboxamide], the IC50 against CYP3A4 (human, microsomes, 11 min) is greater than 1000 nM. Also, the 50% effective concentration (EC50) on P-glycoprotein is less than 100 nM.
For `COc1cc2c(cc1OC)CN(CCc1ccc(-n3nnc(-c4cc(OCc5ccccc5)c(OC)cc4NC(=O)c4cc(=O)c5ccccc5o4)n3)cc1)CC2` [Compound 29, N-(4-(Benzyloxy)-2-(2-(4-(2-(6,7-dimethoxy-3,4-dihydroisoquinolin-2(1H)-yl)ethyl)phenyl)-2H-tetrazol-5-yl)-5-methoxyphenyl)-4-oxo-4H-chromene-2-carboxamide], in that order: greater than 1000 nM and less than 100 nM.
Regarding `COc1cc2c(cc1OC)CN(CCc1ccc(NC(=O)c3cc(OC)c(OC)cc3NC(=O)c3cnc4ccccc4c3)cc1)CC2` [Tariquidar, reference compound], the EC50 on P-glycoprotein is less than 100 nM.
At CYP3A4, `COc1cc2c(cc1OC)CN(CCc1ccc(-n3nnc(-c4cc(OC)c(OC)cc4NC(=O)c4ccc(-n5ccnc5)cc4)n3)cc1)CC2` [Compound 23, N-(2-(2-(4-(2-(6,7-Dimethoxy-3,4-dihydroisoquinolin-2(1H)-yl)ethyl)phenyl)-2H-tetrazol-5-yl)-4,5-dimethoxyphenyl)-4-(1H-imidazol-1-yl)benzamide] had an IC50 of 500 to 1000 nM. For the same compound, at P-glycoprotein, the EC50 is 250 to 500 nM.
As to `COc1cc2c(cc1OC)CN(CCc1ccc(-n3nnc(-c4cc(OC)c(OC)cc4NC(=O)c4cc(=O)c5cc(-n6ccnc6)ccc5o4)n3)cc1)CC2` [Compound 20, N-(2-(2-(4-(2-(6,7-Dimethoxy-3,4-dihydroisoquinolin-2(1H)-yl)ethyl)phenyl)-2H-tetrazol-5-yl)-4,5-dimethoxyphenyl)-6-(1H-imidazol-1-yl)-4-oxo-4H-chromene-2-carboxamide], on CYP3A4 (human, microsomes, 11 min), the concentration for half-maximal inhibition (IC50) is greater than 1000 nM. The EC50 at P-glycoprotein is greater than 1000 nM.
On CYP3A4, `COc1cc(NC(=O)c2cnc3ccccc3c2)c(-c2nnn(-c3ccc(CCN4CCc5cnccc5C4)cc3)n2)cc1OC` [Compound 2, N-(2-(2-(4-(2-(3,4-Dihydro-2,6-naphthyridin-2(1H)-yl)ethyl)phenyl)-2H-tetrazol-5-yl)-4,5-dimethoxyphenyl)quinoline-3-carboxamide] came in with an IC50 of 100 to 250 nM. Besides, the concentration giving a half-maximal response (EC50) on P-glycoprotein is 100 to 250 nM.
At CYP3A4, `COc1cc(NC(=O)c2cc(=O)c3ccccc3o2)c(-c2nnn(-c3ccc(CCN4CCc5cnccc5C4)cc3)n2)cc1OC` [Compound 7, N-(2-(2-(4-(2-(3,4-Dihydro-2,6-naphthyridin-2(1H)-yl)ethyl)phenyl)-2H-tetrazol-5-yl)-4,5-dimethoxyphenyl)-4-oxo-4H-chromene-2-carboxamide] yielded a half-inhibitory concentration (IC50) of 500 to 1000 nM. The same compound showed an EC50 at P-glycoprotein of 100 to 250 nM.
On to `COc1cc(NC(=O)c2cc(=O)c3ccccc3o2)c(-c2nnn(-c3ccc(CCN4CCn5cncc5C4)cc3)n2)cc1OC` [Compound 1, A-(2-(2-(4-(2-(5,6-Dihydroimidazo[1,5-a]pyrazin-7(8H)-yl)ethyl)phenyl)-2H-tetrazol-5-yl)-4,5-dimethoxyphenyl)-4-oxo-4H-chromene-2-carboxamide], for which the IC50 on CYP3A4 (human, microsomes, 11 min) is greater than 1000 nM. Besides, the EC50 on P-glycoprotein was greater than 1000 nM.
Take `COc1cc(NC(=O)c2cnc3ccccc3c2)c(-c2nnn(-c3ccc(CCN4CCc5cnccc5C4)cc3)n2)cc1OCc1ccccc1` [Compound 17, N-(4-(Benzyloxy)-2-(2-(4-(2-(3,4-dihydro-2,6-naphthyridin-2(1H)-yl)ethyl)phenyl)-2H-tetrazol-5-yl)-5-methoxyphenyl)quinoline-3-carboxamide]: the IC50 against CYP3A4 (human, microsomes, 11 min) is 500 to 1000 nM.
